The conditions of data set [1]: cited from earlier work.
In data set [2] the test system is clinical drug-induced liver injury. As to conditions: clinical DILI severity category 1 to 5; cited from earlier work.
Data set [3] concerns human Liver-Chip (hepatocytes and non-parenchymal cells). On the procedure:
At least four to six brightfield images were acquired per chip for morphology analysis. […] Brightfield images were acquired across three fields of view on days 1, 3, and 7 for each cycle. Cytotoxicity classification was performed while acquiring images for both NPCs and hepatocytes. Images were then scored zero to four by blinded individuals (n = 2) based on severity of agglomeration of cell debris for both channels. The scoring matrix and representative images have been included in the supplement (Supplementary Fig. 1).
Hepatocyte layer on Chips
Non-parenchymal cell layer on Chips
Supplementary Figure 1. (a) Representative brightfield images to depict the cellular morphology score in the top channel of the Liver-Chip which contains hepatocytes. A score of 0 represents no hepatotoxicity detected, which is defined by 95-100% healthy hepatocyte morphology, hexagonal shape containing binucleated cells, clear cell cytoplasm, distinctive cell junctions and less than 5% dead cells. A score of 1 […]
cells. A score of 2 represents mild hepatotoxicity with > 70% monolayer of hepatocytes visible, evidence that cells have begun to lose their distinct cell junctions, many cells contain a granulated cytoplasm but < 30% are dead cells. A score of 3 represents moderate hepatotoxicity with severe granulation of cytoplasm and most of the cells have lost their junctions. Approximately 50% of the cells are considered dead. A score of 4 represents severe hepatotoxicity with agglomeration of cell debris and > 50% of the cells are considered dead. The pores on the membrane become visible as there is no longer a cellular monolayer. (b) Representative brightfield images to depict the cellular morphology score in the bottom channel of the Liver-Chip which contains non-parenchymal cells. A score of 0 represents no cytotoxicity detected, with an intact monolayer and <1% of the cells are dead. A score of 1 represents at least 90% of the monolayer is present and there are <10% dead cells. A score of 2 represents mild cytotoxicity with > 80% of the monolayer present and < 20% are dead cells. A score of 3 represents moderate cytotoxicity with > 50% of the monolayer present and < 50% are dead cells. A score of 4 represents severe cytotoxicity with > 50% of the cells are considered dead. (bar, 50 μm). […]

The next data set has as its system human Liver-Chip. Description: Liver-Chip DILI prediction: minimum toxic concentration and margin of safety (MOS)-like figure.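 For Chip MOS both donors: Toxic concentration is the lowest across albumin IC50 and ALT and morphology endpoints.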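 For Chip MOS donor 1: Toxic concentration is the lowest across albumin IC50 and ALT and morphology endpoints.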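 For Chip MOS donor 2: Toxic concentration is the lowest across albumin IC50 and ALT and morphology endpoints.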 As to conditions: for Chip MOS both donors / Chip MOS donor 1 / Chip MOS donor 2: free IC50 concentration in the assay divided by total concentration of drug in human plasma at Cmax. An excerpt:
Because the fundamental principles of drug action dictate that free (unbound) drug concentrations drive drug effects, we explored an alternative methodology for calculating the MOS-like values by accounting for protein binding using a previously reported approach. Accordingly, we reanalyzed the findings for the 27 drugs in our study by accounting for protein binding.

Data set [4] concerns human Liver-Chip (primary human hepatocytes). The data set is described as follows: Liver-Chip alanine transaminase (ALT) release in top channel effluent (ELISA). The class given is cell-based. The source says: Cycles 1 to 4 tested 6–8 concentrations in duplicate for each of 10–13 drugs. To determine which sampling strategy was optimal for cycles 1 to 4 (16 doses × 1 replicate, 8 × 2, 5 × 3, or 4 × 4), we generated three different “dose-response” synthetic datasets, each distorted by different noise levels (low, medium, or high). For each of these datasets, we performed curve-fitting analyses and calculated the Root Mean Square Error between the “true” and estimated IC50 parameter. […] Some drugs were also repeated across cycles (on different donors or at different concentrations) to ensure experimental robustness. However, to replicate a more typical study design likely to be carried out by scientists in the pharmaceutical industry, we created cycle 5 with 6 drugs, where each was tested in 4 concentrations in triplicate. For each cycle, chips were dosed with drug over 8 days (referred to as Day 0 through Day 7).
The drug dosing concentrations were determined from the unbound human Cmax of each drug. First, the expected fraction of drug unbound in media with 2% FBS was extrapolated from plasma binding data for each drug. Dosing concentrations were then back calculated such that the unbound fraction in media would reflect relevant multiples of unbound human Cmax (Supplementary Data 1).
On the first dosing day (Day 0), all chips were imaged using the ECHO microscope. Five hundred microliters of effluent was collected from all four reservoirs of the pod and placed in a labeled 96-well plate. After collection, all the remaining media was carefully aspirated before dosing with 3.8 mL of corresponding dosing solution. Dosing occurred on study days 0, 2, and 4 for chips flowing at 30 µL/h, and on days 0, 1, 2, 3, 4, 5, and 6 for chips flowing at 150 µL/h. Effluent collection occurred on days 1, 3, and 7.
Top channel outlet effluents were analyzed to quantify albumin and alanine transaminase (ALT) levels on days 1, 3, and 7 using sandwich ELISA kits (Abcam, Albumin ab179887, ALT ab234578) according to vendor-provided protocols. Frozen (−80 °C) effluent samples were thawed overnight at 4 °C prior to assay. The Hamilton Vantage liquid handling platform was used to manage effluent dilutions (1:500 for albumin, neat for ALT), preparation of standard curves, and addition of antibody cocktail. Absorbance at 450 nm was measured using the SynergyNeo Microplate Reader (BioTek).
Background: In an ELISA, binding on a coated surface is turned into a signal by an enzyme label.

Data set [5] deals with 3D spheroid cultures of primary human hepatocytes. As to conditions: cited from earlier work; for Spheroid MOS: 3D hepatic spheroids, previously published data; for Spheroid false negative: Yes/No, also No for drugs not tested in spheroid.
For data set [6] the following is noted: cited from earlier work. The source holds these as a separate data set.
[7] abbreviates: lowest concentration causing an increase in cellular morphology score, donor 1.
The mark [8] stands for this setting: lowest concentration causing an increase in cellular morphology score, donor 2.
The mark [9] stands for this setting: lowest concentration causing an increase in cellular morphology score.
Where [10] appears, read: lowest concentration causing an increase in ALT protein.
Where [11] appears, read: expanded drug list, lowest concentration causing an increase in ALT release.

Read-outs that look alike come from different tables or passages of the source.

In the case of `COC(c1ccccc1)(c1ccccc1)[C@H](Oc1nc(C)cc(C)n1)C(=O)O` [Ambrisentan], the “Human Cmax Total” value in data set [1] (human, total plasma Cmax, ref Proctor, W.R. et al. (29)) is 790 nM. Moreover, the “Garside DILI rank” value in data set [2] is listed as 5. Besides, the “Morphology Donor 1” value in data set [3] (setting [7]) is >300 multiples of the unbound human Cmax. The “Morphology Donor 2” value in data set [3] (setting [8]) is >1000 multiples of the unbound human Cmax. Moreover, the “Morphology Donor 3” value in data set [3] (setting [9]) was >300 multiples of the unbound human Cmax. In addition, in the data set on human Liver-Chip, the “Chip MOS both donors” value is over 10, the “Chip MOS donor 1” value is reported as over 3 and the “Chip MOS donor 2” value was over 10. For the same molecule, in data set [4] (setting [10]), the “ALT Donor 1” value is >300 multiples of the unbound human Cmax, the “ALT Donor 2” value was >1000 multiples of the unbound human Cmax and the “ALT Donor 3” value is reported as >300 multiples of the unbound human Cmax. Also, in data set [5], the “Spheroid MOS” value is given as over 127 and the Spheroid false negative result is “No”.
With `C=C[C@@H]1C[C@]1(NC(=O)[C@@H]1C[C@@H](Oc2ncc(OC)c3ccc(Cl)cc23)CN1C(=O)[C@@H](NC(=O)OC(C)(C)C)C(C)(C)C)C(=O)NS(=O)(=O)C1CC1` [Asunaprevir], in data set [1] (human, total plasma Cmax, ref Schulz, M. & Schmoldt, A. (64)), the “Human Cmax Total” value was 764.4 nM. The “Garside DILI rank” value in data set [2] is given as 2. The “Morphological injury score change in words” value in data set [3] is “concentration and time-dependent changes”. The “Morphology Donor 1” value in data set [3] (human) is reported as 1000 unbound human Cmax multiplier. Further, the “Chip MOS donor 1” value in the data set with human Liver-Chip is on record as 4. Further, in data set [6] (plasma, ref Lau, S.W.J. (65)), the “Expected Fraction Unbound in Plasma” value is recorded as 0.012. In addition, the “ALT change in words” value in data set [4] (Liver-Chip effluent) was “no elevation of ALT”. Also, in data set [4] (setting [11]), the “ALT Donor 1” value is reported as > 1000 unbound human Cmax multiplier. Also, the Spheroid false negative entry in data set [5] is recorded as “No”.
Take `CCN(CC)C(=O)/C(C#N)=C/c1cc(O)c(O)c([N+](=O)[O-])c1` [Entacapone]: the “Human Cmax Total” value in data set [1] (human, total plasma Cmax, ref Lombardo, F., Berellini, G. & Obach, R. S. (70)) is 3300 nM. The “Garside DILI rank” value in data set [2] is 4. The “Morphology Donor 1” value in data set [3] (setting [7]) was >300 multiples of the unbound human Cmax. Also, the “Chip MOS donor 1” value with human Liver-Chip is reported as over 6. Moreover, in data set [4] (setting [10]), the “ALT Donor 1” value is >300 multiples of the unbound human Cmax. Also, in data set [5], the “Spheroid MOS” value is given as 46.5 and the Spheroid false negative result is reported as “No”.
On to `O=c1[nH]c(=O)n([C@@H]2O[C@H](CO)[C@@H](O)[C@@H]2F)cc1I` [Fialuridine], for which, in data set [1] (human, total plasma Cmax, ref Vorrink, S. U., Zhou, Y., Ingelman- Sundberg, M. & Lauschke, V.M. (30)), the “Human Cmax Total” value is 640 nM. For the same molecule, in data set [2], the “Garside DILI rank” value was 1. Moreover, in data set [3] (human), the “Morphology Donor 1” value is >300 multiples of the unbound human Cmax and the “Morphology Donor 2” value is on record as >300 multiples of the unbound human Cmax. Besides, in the data set with human Liver-Chip, the “Chip MOS both donors” value was 0.1, the “Chip MOS donor 1” value is on record as 0.1 and the “Chip MOS donor 2” value is 2.8. In data set [4] (setting [10]), the “ALT Donor 1” value is >300 multiples of the unbound human Cmax and the “ALT Donor 2” value is >300 multiples of the unbound human Cmax. In data set [5], the “Spheroid MOS” value is recorded as 12.3 and the Spheroid false negative result is listed as “No”.
For the molecule `CCc1nn(CCCN2CCN(c3cccc(Cl)c3)CC2)c(=O)n1CCOc1ccccc1` [Nefazodone], the “Garside DILI rank” value in data set [2] was 1. In data set [3] (human), the “Morphology Donor 1” value is 300 multiples of the unbound human Cmax. Further, the “Chip MOS donor 1” value in the data set with human Liver-Chip is 1.4. Besides, the “ALT Donor 1” value in data set [4] (setting [10]) is recorded as 300 multiples of the unbound human Cmax. Also, in data set [5], the “Spheroid MOS” value is recorded as 6.8 and the Spheroid false negative entry is “No”.
With `CCc1ccc(CCOc2ccc(CC3SC(=O)NC3=O)cc2)nc1` (stereo not drawn) [Pioglitazone], the “Human Cmax Total” value in data set [1] (human, total plasma Cmax, ref Xu, J. J. et al. (36)) is 3000 nM. Further, the “Garside DILI rank” value in data set [2] is reported as 3. In addition, in data set [3] (human), the “Morphology Donor 1” value is reported as >300 multiples of the unbound human Cmax and the “Morphology Donor 2” value is listed as >300 multiples of the unbound human Cmax. In the data set on human Liver-Chip, the “Chip MOS both donors” value is 2.8, the “Chip MOS donor 1” value is on record as 2.8 and the “Chip MOS donor 2” value was over 2.8. In addition, in data set [4] (setting [10]), the “ALT Donor 1” value is >300 multiples of the unbound human Cmax and the “ALT Donor 2” value was >300 multiples of the unbound human Cmax. Also, in data set [5], the “Spheroid MOS” value is recorded as over 5.3 and the Spheroid false negative result was “Yes”.
On to `Cc1cc2c(cc1CC(=O)c1sccc1S(=O)(=O)Nc1onc(C)c1Cl)OCO2` [Sitaxsentan], for which the “Garside DILI rank” value in data set [2] is reported as 1. The “Morphology Donor 1” value in data set [3] (setting [7]) is 100 multiples of the unbound human Cmax. For the same molecule, the “Morphology Donor 2” value in data set [3] (setting [8]) is listed as 100 multiples of the unbound human Cmax. Further, the “Morphology Donor 3” value in data set [3] (setting [9]) is 100 multiples of the unbound human Cmax. In the data set with human Liver-Chip, the “Chip MOS both donors” value is 0.04, the “Chip MOS donor 1” value is listed as 0.04 and the “Chip MOS donor 2” value is given as 1.6. In data set [4] (setting [10]), the “ALT Donor 1” value is 300 multiples of the unbound human Cmax, the “ALT Donor 2” value is on record as 300 multiples of the unbound human Cmax and the “ALT Donor 3” value is 100 multiples of the unbound human Cmax. Also, in data set [5], the “Spheroid MOS” value is 8.7 and the Spheroid false negative entry is “No”.
`CCOC(=O)CN[C@@H](C(=O)N1CC[C@H]1C(=O)NCc1ccc(/C(N)=N\O)cc1)C1CCCCC1` [Ximelagatran]: in data set [1] (human therapeutic total plasma Cmax from literature, ref Sivapalasingam, S. & Steigbigel, N. (67)), the “Human Cmax Total” value was 450 nM. Also, in data set [3] (human), the “Morphology Donor 1” value was 100 unbound human Cmax multiplier and the “Morphology Donor 2” value is 300 unbound human Cmax multiplier. In the data set on human Liver-Chip, the “Chip MOS both donors” value is recorded as 30, the “Chip MOS donor 1” value was 30 and the “Chip MOS donor 2” value was 300. Also, the “Liver-Chip toxicity determination, MOS-like figure against threshold value of 50” value in the data set with human Liver-Chip (not corrected for protein binding, donors one and two) is “only toxic in one of the donors tested”. The “Expected Fraction Unbound in Plasma” value in data set [6] (human plasma, no reference printed (-)) was 1. In data set [4] (setting [11]), the “ALT Donor 1” value is 30 unbound human Cmax multiplier and the “ALT Donor 2” value is > 300 unbound human Cmax multiplier. In addition, in data set [5], the “Spheroid MOS” value is reported as 335 and the Spheroid false negative entry is reported as “Yes”.

Values taken from paper PMC9727064, “Performance assessment and economic analysis of a human Liver-Chip for predictive toxicology” (Communications Medicine, 2022).
